Measured values reported in patent publication US7812035B2, “4-substituted piperidines, and methods of use thereof” (Sepracor Inc., priority 2001, dated 2010).
Like-named read-outs stand apart in the source and are kept apart here.

What was measured:
Format in all cases: cell-based
[1] = molecular target: norepinephrine transporter (Homo sapiens, UniProt P23975); assay: NE uptake inhibition (monoamine transporter antagonism, methods of Galli et al); conditions: read-out: NE uptake (% inhibition @1 μM)
Chain of norepinephrine transporter (P23975 whole entry): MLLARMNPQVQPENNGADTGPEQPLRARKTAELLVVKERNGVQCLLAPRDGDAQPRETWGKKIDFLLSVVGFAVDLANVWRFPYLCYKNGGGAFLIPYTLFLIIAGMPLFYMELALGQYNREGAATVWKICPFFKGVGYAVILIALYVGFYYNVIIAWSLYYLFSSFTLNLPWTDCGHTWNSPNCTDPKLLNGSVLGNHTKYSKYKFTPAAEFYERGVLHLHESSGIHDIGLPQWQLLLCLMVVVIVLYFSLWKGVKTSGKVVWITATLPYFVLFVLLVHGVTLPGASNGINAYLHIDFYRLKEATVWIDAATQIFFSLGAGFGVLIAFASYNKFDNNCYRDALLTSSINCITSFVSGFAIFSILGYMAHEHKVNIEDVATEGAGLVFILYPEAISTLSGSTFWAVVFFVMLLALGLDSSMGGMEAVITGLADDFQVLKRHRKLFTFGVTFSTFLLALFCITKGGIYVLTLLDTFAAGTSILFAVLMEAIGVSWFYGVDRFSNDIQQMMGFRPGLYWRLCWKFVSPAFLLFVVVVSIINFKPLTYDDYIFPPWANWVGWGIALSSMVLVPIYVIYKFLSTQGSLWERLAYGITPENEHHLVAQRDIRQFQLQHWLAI

dopamine transporter = assay: DA uptake inhibition (monoamine transporter antagonism, methods of Gu et al); conditions: 1 μM compound
serotonin transporter = serotonin transporter (UniProt P31645); assay: 5-HT uptake inhibition (monoamine transporter antagonism, methods of Gu et al); conditions: 1 μM compound

For `OCC1CCN(CC2(c3ccc(Cl)cc3)CCC2)CC1` [Compound 10, {1-[1-(4-chloro-phenyl)-cyclobuylmethyl]-piperidin-4-yl}-methanol], the inhibition at 1 µM [1] was 62%, the “DA uptake (% inhibition @1 μM)” value (dopamine transporter) was 70% and the “5-HT uptake (% inhibition @1 μM)” value (serotonin transporter) was 21%.
For `FC(F)(F)c1ccc(OCC2CCN(CC3(c4ccc(Cl)cc4)CCC3)CC2)cc1` [Compound 13, 1-[1-(4-Chloro-Phenyl)-Cyclobutylmethyl]-4-(4-Trifluoromethyl-Phenoxymethyl)-Piperidine], the inhibition at 1 µM [1] was 97%, the “DA uptake (% inhibition @1 μM)” value (dopamine transporter) was 94% and the “5-HT uptake (% inhibition @1 μM)” value (serotonin transporter) was 83%.
For `FC(F)(F)c1cc(COC2CCN(CC3(c4ccc(Cl)cc4)CCC3)CC2)cc(C(F)(F)F)c1` [Compound 5], the inhibition at 1 µM ([1]; 1 μM compound) was 85%, the “DA uptake (% inhibition @1 μM)” value (dopamine transporter) was 61% and the “5-HT uptake (% inhibition @1 μM)” value (serotonin transporter) was 14%.
For `FC(F)(F)c1ccc(OC2CCN(CC3(c4ccc(Cl)cc4)CCC3)CC2)cc1` [Compound 8, 1-[1-(4-chloro-phenyl)-cyclobutylmethyl]-4-(4-trifluoromethal-phenoxy)-piperidine], the inhibition at 1 µM [1] was 38%, the “DA uptake (% inhibition @1 μM)” value (dopamine transporter) was 25% and the “5-HT uptake (% inhibition @1 μM)” value (serotonin transporter) was 56%.
`FC(F)(F)c1ccc(COCC2CCN(CC3(c4ccc(Cl)cc4)CCC3)CC2)cc1` [Compound 11] was tested, and the inhibition at 1 µM ([1]; 1 μM compound) was 97%, the “DA uptake (% inhibition @1 μM)” value (dopamine transporter) was 97% and the “5-HT uptake (% inhibition @1 μM)” value (serotonin transporter) was 87%.
With `OC1CCN(CC2(c3ccc(Cl)cc3)CCC2)CC1` [Compound 2, 1-[1-(4-Chloro-phenyl)-cyclobutylmethyl]-piperidin-4-ol] the inhibition at 1 µM [1] was 65%, the “DA uptake (% inhibition @1 μM)” value (dopamine transporter) was 88% and the “5-HT uptake (% inhibition @1 μM)” value (serotonin transporter) was 36%.
With `FC(F)(F)c1ccc(COC2CCN(CC3(c4ccc(Cl)cc4)CCC3)CC2)cc1` [Compound 6, [1-(4-chloro-phenyl)-cyclobutylmethyl]-4-(4-trifluoromethyl-benzyloxy)-piperidine] the inhibition at 1 µM [1] was 78%, the “DA uptake (% inhibition @1 μM)” value (dopamine transporter) was 85% and the “5-HT uptake (% inhibition @1 μM)” value (serotonin transporter) was 9%.
